Data reported in paper PMC9841523 (Journal of Medicinal Chemistry, 2022).

Assays:
[1] = tested on: MAP2K1, MAP2K2; assay: KiNativ kinase panel; type: cell-based, human; conditions: 1 μM, MCF-7 Cells
[2] = target: T1, MLK3 (Homo sapiens, UniProt Q16584); assay: KiNativ kinase panel; type: cell-based; conditions: 1 μM; MCF-7 Cells; Lys2; DLKSNNILLLQPIESDDMEHK
T1 construct: purchased ActivX Biosciences (KiNativ)

[3] = tested on: MST1, MST2; assay: KiNativ kinase panel; type: cell-based, human; conditions: 1 μM, MCF-7 Cells, Lys2
[4] = target: hERG ion channel (Homo sapiens, UniProt Q12809); assay: in vitro hERG inhibition; conditions: for inhibition of the hERG ion channel: 10 µM
[5] = tested on: MCF-7 (PIK3CA^E545K) cell line-derived xenograft; assay: 28-day study in the MCF-7 CDX model; conditions: for tumor volume: MCF-7 CDX, once weekly ip, 28-day study, most significant at 3 or 10 mg/kg; for tolerability (body weight): up to 10 mg/kg ip once weekly
Experimental: Formulation containing transcutol/solutol HS15/H 2O (5/5/90, %w/w/v) was used, with a dose volume at 5 mL/kg.
Methods for xenograft studies.
MCF-7 xenograft studies. Female Balb/c nude mice (Shanghai Lingchang Biotechnology), 6–8 weeks of age, were inoculated subcutaneously in the right flank with MCF-7 (ECACC-
Three days prior to inoculation, mice were fed with drinking water containing β-estradiol (40 μg/mL). When mean tumor volume reached between 200–400 mm 3, mice were randomized into treatment groups (n = 12/group) for efficacy study, and tumor volume was measured twice weekly by caliper measurements for the duration of the study.
compounds were administered by ip injections at indicated doses, once weekly.

[6] = tested on: CK1g1, CK1g2, CK1g3; assay: KiNativ kinase panel; type: cell-based, human; conditions: 1 μM, MCF-7 Cells, ATP Loop
[7] = target: T2, MAP4K3 (Homo sapiens, UniProt Q8IVH8); assay: KiNativ kinase panel; type: cell-based; conditions: 1 μM, MCF-7 Cells
T2 construct: MCF7 cells were exposed to; endogenous in cells; host or cells: MCF7
T2 sequence (Q8IVH8 1-894): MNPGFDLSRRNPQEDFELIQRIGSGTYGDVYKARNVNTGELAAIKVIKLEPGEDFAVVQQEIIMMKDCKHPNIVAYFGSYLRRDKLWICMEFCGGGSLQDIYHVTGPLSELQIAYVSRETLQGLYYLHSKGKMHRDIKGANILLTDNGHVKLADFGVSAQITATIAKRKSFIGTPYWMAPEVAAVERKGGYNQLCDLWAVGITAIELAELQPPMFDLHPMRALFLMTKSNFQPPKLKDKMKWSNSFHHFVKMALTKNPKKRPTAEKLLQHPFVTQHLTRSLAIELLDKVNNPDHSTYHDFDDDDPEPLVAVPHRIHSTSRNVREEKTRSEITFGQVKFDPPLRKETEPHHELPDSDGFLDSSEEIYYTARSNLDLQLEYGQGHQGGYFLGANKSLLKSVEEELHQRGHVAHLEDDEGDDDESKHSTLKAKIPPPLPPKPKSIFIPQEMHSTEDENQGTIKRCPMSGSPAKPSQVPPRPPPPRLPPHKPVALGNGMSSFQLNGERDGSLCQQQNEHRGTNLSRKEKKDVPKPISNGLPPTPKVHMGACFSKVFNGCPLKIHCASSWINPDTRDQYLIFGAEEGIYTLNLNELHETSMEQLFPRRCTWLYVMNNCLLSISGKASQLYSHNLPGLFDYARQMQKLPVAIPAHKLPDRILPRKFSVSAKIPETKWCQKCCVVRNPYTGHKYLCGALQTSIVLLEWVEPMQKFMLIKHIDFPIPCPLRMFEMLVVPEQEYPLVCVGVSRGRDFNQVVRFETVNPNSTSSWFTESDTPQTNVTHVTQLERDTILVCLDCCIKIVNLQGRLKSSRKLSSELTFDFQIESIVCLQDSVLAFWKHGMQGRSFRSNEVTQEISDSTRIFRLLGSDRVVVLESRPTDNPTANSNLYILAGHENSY

[8] = tested on: PCTAIRE1, PCTAIRE3; assay: KiNativ kinase panel; type: cell-based, human; conditions: 1 μM, MCF-7 Cells, Lys2
[9] = tested on: CDK11, CDK8; assay: KiNativ kinase panel; type: cell-based, human; conditions: 1 μM, MCF-7 Cells, Lys2
[10] = tested on: MAPKAPK2, MAPKAPK3; assay: KiNativ kinase panel; type: cell-based, human; conditions: 1 μM, MCF-7 Cells, Lys2
[11] = target: T3, MASTL (Homo sapiens, UniProt Q96GX5); assay: KiNativ kinase panel; type: cell-based; conditions: 1 μM, MCF-7 Cells
T3 construct: purchased ActivX Biosciences (KiNativ)
T3 sequence (Q96GX5 1-879): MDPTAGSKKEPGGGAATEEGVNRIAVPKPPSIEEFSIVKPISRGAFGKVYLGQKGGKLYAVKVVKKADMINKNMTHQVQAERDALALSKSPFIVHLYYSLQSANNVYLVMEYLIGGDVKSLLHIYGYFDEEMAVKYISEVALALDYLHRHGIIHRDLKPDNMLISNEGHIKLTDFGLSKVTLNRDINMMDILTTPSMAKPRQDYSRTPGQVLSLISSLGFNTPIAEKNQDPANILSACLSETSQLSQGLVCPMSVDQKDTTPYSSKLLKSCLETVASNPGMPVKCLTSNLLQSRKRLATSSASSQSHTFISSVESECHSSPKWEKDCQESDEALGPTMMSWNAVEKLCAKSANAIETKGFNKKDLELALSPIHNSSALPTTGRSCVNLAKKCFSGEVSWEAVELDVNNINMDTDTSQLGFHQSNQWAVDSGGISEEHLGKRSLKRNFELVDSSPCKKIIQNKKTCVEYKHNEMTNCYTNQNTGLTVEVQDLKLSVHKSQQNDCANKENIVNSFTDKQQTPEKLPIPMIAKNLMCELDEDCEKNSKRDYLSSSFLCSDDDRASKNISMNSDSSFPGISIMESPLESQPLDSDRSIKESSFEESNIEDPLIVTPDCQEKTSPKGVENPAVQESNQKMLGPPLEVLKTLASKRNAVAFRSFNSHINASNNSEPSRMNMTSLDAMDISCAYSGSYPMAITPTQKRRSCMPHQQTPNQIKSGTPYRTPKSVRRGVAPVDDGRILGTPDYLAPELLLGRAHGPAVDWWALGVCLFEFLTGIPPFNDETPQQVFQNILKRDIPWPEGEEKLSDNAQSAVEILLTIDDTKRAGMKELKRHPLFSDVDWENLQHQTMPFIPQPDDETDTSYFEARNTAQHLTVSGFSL

[12] = target: T4, MST1 (Homo sapiens, UniProt Q13043); assay: KiNativ kinase panel; type: cell-based; conditions: 1 μM; MCF-7 Cells; Lys1; ETGQIVAIKQVPVESDLQEIIK
T4 construct: purchased ActivX Biosciences (KiNativ)

[13] = target: T5, CK1g3 (Homo sapiens, UniProt Q9Y6M4); assay: KiNativ kinase panel; type: cell-based; conditions: 1 μM, MCF-7 Cells, Lys2
T5 construct: MCF7 cells were exposed to; endogenous in cells; host or cells: MCF7

[14] = tested on: Wnk1, Wnk2; assay: KiNativ kinase panel; type: cell-based, human; conditions: 1 μM; MCF-7 Cells; ATP Loop; GSFKTVYK
[15] = tested on: PITSLRE; assay: KiNativ kinase panel; type: cell-based, human; conditions: 1 μM; MCF-7 Cells; Lys2; DLKTSNLLLSHAGILK

Sequence of hERG ion channel (Q12809 whole entry): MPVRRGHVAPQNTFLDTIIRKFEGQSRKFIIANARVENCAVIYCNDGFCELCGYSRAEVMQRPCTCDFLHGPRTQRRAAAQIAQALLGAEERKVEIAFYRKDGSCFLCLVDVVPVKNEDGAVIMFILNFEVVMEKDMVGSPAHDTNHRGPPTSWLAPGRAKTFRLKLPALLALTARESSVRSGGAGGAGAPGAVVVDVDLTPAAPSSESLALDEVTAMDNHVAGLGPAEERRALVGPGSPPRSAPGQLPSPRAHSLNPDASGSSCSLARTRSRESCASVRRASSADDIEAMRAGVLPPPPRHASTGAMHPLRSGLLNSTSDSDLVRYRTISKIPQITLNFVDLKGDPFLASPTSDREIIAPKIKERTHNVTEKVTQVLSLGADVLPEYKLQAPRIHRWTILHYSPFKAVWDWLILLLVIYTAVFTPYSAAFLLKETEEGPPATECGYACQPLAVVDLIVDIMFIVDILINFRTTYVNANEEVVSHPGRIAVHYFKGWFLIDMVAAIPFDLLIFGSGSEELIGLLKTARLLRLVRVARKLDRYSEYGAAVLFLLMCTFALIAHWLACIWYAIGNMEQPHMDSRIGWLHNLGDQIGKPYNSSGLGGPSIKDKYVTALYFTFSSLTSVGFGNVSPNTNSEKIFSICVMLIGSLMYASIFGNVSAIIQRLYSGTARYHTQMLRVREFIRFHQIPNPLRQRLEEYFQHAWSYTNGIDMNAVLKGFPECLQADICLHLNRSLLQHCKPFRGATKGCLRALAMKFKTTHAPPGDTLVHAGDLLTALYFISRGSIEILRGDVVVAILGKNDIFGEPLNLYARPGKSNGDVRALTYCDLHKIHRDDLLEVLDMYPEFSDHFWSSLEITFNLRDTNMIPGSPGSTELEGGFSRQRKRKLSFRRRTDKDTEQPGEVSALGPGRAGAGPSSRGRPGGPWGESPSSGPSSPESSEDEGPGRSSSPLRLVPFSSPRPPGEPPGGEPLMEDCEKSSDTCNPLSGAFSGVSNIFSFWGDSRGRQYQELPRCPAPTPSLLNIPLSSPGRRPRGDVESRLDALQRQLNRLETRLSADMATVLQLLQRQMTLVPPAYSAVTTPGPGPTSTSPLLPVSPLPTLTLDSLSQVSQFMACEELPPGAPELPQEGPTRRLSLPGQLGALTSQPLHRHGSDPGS
T1 sequence (Q16584 whole entry): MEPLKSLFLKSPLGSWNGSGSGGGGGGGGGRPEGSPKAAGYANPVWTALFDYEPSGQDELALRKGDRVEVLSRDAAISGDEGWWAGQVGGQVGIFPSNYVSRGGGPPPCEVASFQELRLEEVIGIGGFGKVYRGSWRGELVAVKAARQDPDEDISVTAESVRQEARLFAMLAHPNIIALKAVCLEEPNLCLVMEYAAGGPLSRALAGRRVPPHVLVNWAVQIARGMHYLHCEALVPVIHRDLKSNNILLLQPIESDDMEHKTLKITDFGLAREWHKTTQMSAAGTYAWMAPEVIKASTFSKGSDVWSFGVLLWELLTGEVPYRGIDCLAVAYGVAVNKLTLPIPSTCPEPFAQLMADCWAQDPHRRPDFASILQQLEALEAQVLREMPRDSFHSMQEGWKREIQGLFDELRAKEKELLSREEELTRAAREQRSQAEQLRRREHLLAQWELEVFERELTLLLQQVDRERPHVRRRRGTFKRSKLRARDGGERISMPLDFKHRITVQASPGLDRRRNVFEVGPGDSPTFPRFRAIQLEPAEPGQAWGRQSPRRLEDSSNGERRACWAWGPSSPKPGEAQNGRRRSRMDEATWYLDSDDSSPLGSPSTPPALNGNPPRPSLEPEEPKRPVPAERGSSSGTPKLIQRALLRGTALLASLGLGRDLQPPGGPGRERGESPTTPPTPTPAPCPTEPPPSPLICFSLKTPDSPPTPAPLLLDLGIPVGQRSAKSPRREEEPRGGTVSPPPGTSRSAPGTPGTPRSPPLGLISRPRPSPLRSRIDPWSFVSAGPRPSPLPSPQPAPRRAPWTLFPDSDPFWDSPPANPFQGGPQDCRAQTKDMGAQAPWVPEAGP
T4 sequence (Q13043 whole entry): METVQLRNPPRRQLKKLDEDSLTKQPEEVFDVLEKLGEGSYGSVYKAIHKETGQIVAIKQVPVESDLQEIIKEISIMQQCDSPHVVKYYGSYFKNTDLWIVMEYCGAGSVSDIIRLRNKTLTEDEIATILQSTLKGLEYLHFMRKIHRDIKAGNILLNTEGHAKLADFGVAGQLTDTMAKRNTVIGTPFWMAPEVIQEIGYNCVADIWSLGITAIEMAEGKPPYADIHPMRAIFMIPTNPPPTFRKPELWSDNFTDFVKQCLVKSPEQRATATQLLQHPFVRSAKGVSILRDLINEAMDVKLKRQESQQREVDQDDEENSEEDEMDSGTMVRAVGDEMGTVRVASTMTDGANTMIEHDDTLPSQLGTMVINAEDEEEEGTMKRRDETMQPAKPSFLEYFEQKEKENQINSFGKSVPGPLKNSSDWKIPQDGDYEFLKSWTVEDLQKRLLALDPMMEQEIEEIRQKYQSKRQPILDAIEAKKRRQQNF
T5 sequence (Q9Y6M4 whole entry): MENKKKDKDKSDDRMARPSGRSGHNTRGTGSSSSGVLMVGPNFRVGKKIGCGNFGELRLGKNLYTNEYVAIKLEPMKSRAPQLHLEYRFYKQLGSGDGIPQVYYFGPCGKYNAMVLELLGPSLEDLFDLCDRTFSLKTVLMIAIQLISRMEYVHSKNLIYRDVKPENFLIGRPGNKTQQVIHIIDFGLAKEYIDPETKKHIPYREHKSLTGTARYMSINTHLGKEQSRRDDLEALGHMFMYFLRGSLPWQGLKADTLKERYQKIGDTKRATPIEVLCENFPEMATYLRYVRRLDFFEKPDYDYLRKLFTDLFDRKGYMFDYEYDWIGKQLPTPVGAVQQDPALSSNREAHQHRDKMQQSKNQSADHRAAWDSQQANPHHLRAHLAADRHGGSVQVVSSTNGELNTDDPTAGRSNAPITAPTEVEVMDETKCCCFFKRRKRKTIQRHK

SMILES | KiNativ Kinase Panel Data ([1]; Lys1, KLIHLEIKPAIR) | KiNativ Kinase Panel Data [2] | in vitro hERG inhibition (10 μM) [4] | inhibition of the hERG ion channel [4] | tumor volume [5] | tolerability (body weight) [5] | KiNativ Kinase Panel Data ([7]; Lys1, NVNTGELAAIKVIK) | KiNativ Kinase Panel Data ([7]; Lys2, DIKGANILLTDNGHVK) | KiNativ Kinase Panel Data ([11]; Lys1, LYAVKVVK) | KiNativ Kinase Panel Data [12] | KiNativ Kinase Panel Data [14] | KiNativ Kinase Panel Data [15] | other results
CO[C@H]1C[C@@H]2CC[C@@H](C)[C@@](O)(O2)C(=O)C(=O)N2CCCC[C@H]2C(=O)O[C@H]([C@H](C)C[C@@H]2CC[C@@H](OC(=O)NCCOCCOCCOCCOCCOCCOCCOCCOCCC(=O)N3CCc4cc(Cn5nc(-c6ccc7oc(N)nc7c6)c6c(N)ncnc65)ccc4C3)[C@H](OC)C2)C[C@@H](O)[C@H](C)/C=C(\C)[C@@H](O)[C@@H](OC)C(=O)[C@H](C)C[C@H](C)/C=C/C=C/C=C/1C [compound 38] | 14.8 | 2.0 | 16% | low | reduction in tumor volume | acceptable tolerability profile | 12.2 | -6.9 | 17.4 | 10.7 | 13.6 | 17.8 | KiNativ Kinase Panel Data ([1]; Lys2, […]): 7.6; KiNativ Kinase Panel Data ([3]; […]): 3.0; KiNativ Kinase Panel Data ([6]; […]): 8.9; KiNativ Kinase Panel Data ([8]; […]): 13.9; KiNativ Kinase Panel Data ([9]; […]): -39.0; KiNativ Kinase Panel Data ([10]; […]): -19.9; KiNativ Kinase Panel Data ([11]; ATP Loop, GAFGKVYLGQK): 4.3; KiNativ Kinase Panel Data ([13]; […]): 13.2
CO[C@H]1C[C@@H]2CC[C@@H](C)[C@@](O)(O2)C(=O)C(=O)N2CCCC[C@H]2C(=O)O[C@H]([C@H](C)C[C@@H]2CC[C@@H](OC(=O)NCCOCCOCCOCCOCCOCCOCCOCCOCCC(=O)NCCS(=O)(=O)c3ccc(C(=O)N4CCOc5ccc(-c6ccc(N)nc6)cc5C4)c(C)c3F)[C@H](OC)C2)C[C@@H](O)[C@H](C)/C=C(\C)[C@@H](O)[C@@H](OC)C(=O)[C@H](C)C[C@H](C)/C=C/C=C/C=C/1C [compound 40] | -34.9 | -12.3 | 6% | low | reduction in tumor volume | acceptable tolerability profile | -19.2 | 69.9 | -10.0 | 18.2 | -3.7 | 13.7 | KiNativ Kinase Panel Data ([1]; Lys2, DVKPSNILVNSR): -22.1; KiNativ Kinase Panel Data ([3]; DIKAGNILLNTEGHAK): -6.5; KiNativ Kinase Panel Data ([6]; KIGCGNFGELR): -7.8; KiNativ Kinase Panel Data ([8]; DLKPQNLLINER): -31.2; KiNativ Kinase Panel Data ([9]; DLKPANILVMGEGPER): -19.1; KiNativ Kinase Panel Data ([10]; DVKPENLLYTSK): -27.1; KiNativ Kinase Panel Data ([13]; DVKPENFLIGRPGNK): -6.6
